Key:
Assay type in all cases: biochemical
TTR101-125 = target: T1, TTR101-125 (Homo sapiens, UniProt P02766); experiment: ThT fluorescence assay of TTR101-125 fibril formation; conditions: screen on prone-to-aggregate proteins (FIG. 4A)
T1 construct: TTR fragments 1-25, 26-50, 51-75, 76-100, 81-105, 101-125, and 101-125 were obtained from GenScript; purchased GenScript; host or cells: synthetic peptide
Protocol: (§1) Thioflavin-T (ThT) fluorescence assays. Thioflavin-T (ThT) fluorescence assays were used to monitor fibril formation of recombinant Ap (fragments 1-40 and 1-42), recombinant α-syn, recombinant tau isoform 2N4R, synthetic IAPP, and synthetic TTR peptides treated with BTA and its derivatives. The IAPP ThT assay was performed in 10 mM PBS (pH 7.4) at a final concentration of 10 μM for both IAPP and ThT as published previously. Aβ fragments 1-40 and 1-42 were tested at 7 μM in 10 mM of PBS using ThT at a final concentration of 20 μM. Kinetics of α-syn fibrillization were performed as published previously.^36-37 TTR fragment kinetics of fibril formation were assessed at 10 μM in 100 mM sodium acetate buffer supplemented with 100 mM KCl and 1 mM ethylenediaminetetraacetic acid (EDTA) (pH 4) with 20 μM ThT. The fluorescence emission experiments were performed with the excitation and emission wavelengths set at 440 and 485 nm, respectively, with a Synergy HT multi-mode microplate reader (BioTek, Winooski, VT). Samples were measured in three replicates, and the experiments were repeated three times using at least two different stock solutions. For each time point, arbitrary units of fluorescence were calculated from the mean values normalized against the maximum value in each completed assay. The lag time for each condition was calculated as previously described. All results contained in histograms were presented as mean±SEM. Data were analyzed by the one-way analysis of variance with Dunnett's multiple comparisons between controls and compounds. Differences were considered statistically significant at p<0.05.

[1] = target: T2, transthyretin fragment peptide (TTR81-127) (Homo sapiens, UniProt P02766); experiment: ThT fluorescence assay of TTR81-127 fibril formation; conditions: for remaining activity at 100 µM: compounds at 100 μM, TTR81-127 10 μM, control 0.25% DMSO, read-out: ThT TTR81-127 (%), maximum thioflavin T (ThT) intensity in percentage
T2 construct: TTR fragment 81-127 was obtained from AnaSpec; purchased AnaSpec; host or cells: synthetic peptide
Protocol: as §1

tau isoform 2N4R [2] = target: T3, tau isoform 2N4R (Homo sapiens, UniProt P10636); experiment: PICUP, tau isoform 2N4R oligomerization; conditions: compound 50 μM
T3 construct: made in house; host or cells: E. coli BL21(DE3)
Protocol: (§2) The bacterial expression plasmid consisting of the vector pRK172 carrying a cDNA encoding the human Tau 2N4R isoform was obtained from Dr. David Eliezer (Weill Cornell Medicine, New York, NJ). For protein expression, E. coli BL21(DE3) cells were transformed with the plasmid and grown in LB media supplemented with ampicillin (100 μg/mL). Protein over-expression was induced by the addition of 1 mM IPTG for 4 hours at 37° C., and cells were pelleted by centrifugation at 6,000 g for 15 minutes at 4° C. The cells were resuspended in lysis buffer (20 mM MES, 400 mM NaCl, 0.2 mM MgCl2, 1 mM EGTA, protease inhibitor cocktail (P8340, Sigma Aldrich), 0.25 mg/mL lysozyme, and 1 μg/mL DNase 1, pH 6.8) and lysed by a French press cell disruptor at 4° C., after which the lysate was boiled for 20 minutes. Denatured proteins were pelleted by centrifugation at 30,000 g for 30 minutes at 4° C., and the supernatant was dialyzed overnight against cation exchange buffer (20 mM MES, 50 mM NaCl, 1 mM MgCl2, 1 mM EGTA, 2 mM DTT, 0.1 mM PMSF, pH 6.8). The dialysate was loaded onto a HiPrep SP HP column, and proteins were eluted with a linear gradient ranging from 50 mM to 1 M NaCl. Fractions containing tau isoform 2N4R were pooled, and the resulting protein solution was dialyzed against PBS (pH 7.4) and stored at −80° C.
(§3) Photo-induced Cross-linking of Unmodified Proteins (PICUP) Assay. To induce oligomerization by cross-linking, α-syn (from Rpeptide, LLC) and tau isoform 2N4R were diluted in 10 mM phosphate buffer (pH 7.4) to reach a final concentration of 10 μM. Different compounds were added to the protein solution at a final concentration of 50 μM, resulting in a molar ratio of 1:5. To confirm the gradual effect of the compounds on the inhibition of α-syn oligomerization, the compounds were tested at final concentrations of 3.125, 6.25, 12.5, 25, and 50 μM. The controls consisted of samples without light exposition, without Ru(bpy) or ammonium persulfate, and without compound (i.e., 0.125% DMSO). The cross-linking reaction was initiated by the addition of 2 μL of Ru(bpy) (300 μM final concentration) and 2 μL ammonium persulfate (6 mM final concentration). Samples were irradiated immediately. Light exposure was of a one-second duration for α-syn and a three-second duration for tau isoform 2N4R, with a 53 W (120 V) incandescent lamp installed in a homemade dark-box. Each tube contained a final volume of 20 μL. After irradiation, 8.3 μL of Laemmli loading buffer containing 15% β-mercaptoethanol were immediately added to the solution, followed by incubation at 95° C. for 10 minutes. The cross-linked samples were separated on a 16% SDS-PAGE gel and visualized by Coomassie blue staining.

α-syn [3] = target: T4, α-syn (Homo sapiens, UniProt P37840); experiment: Photo-induced cross-linking of unmodified proteins (PICUP), α-syn oligomerization; conditions: compound 50 μM, molar ratio 1:5 (protein:compound)
T4 construct: purchased rPeptide
Protocol: as §3

Aβ1-40 = target: T5, Aβ1-40 (Homo sapiens, UniProt P05067); experiment: ThT fluorescence assay of Aβ1-40 fibril formation; conditions: screen on prone-to-aggregate proteins (FIG. 4A); Aβ 7 μM
T5 construct: α-syn, Aβ1-40, Aβ1-42 were procured from rPeptide; purchased rPeptide
Protocol: as §1, with “All results contained in histograms were presented as mean±SEM. Data were analyzed by the one-way analysis of variance with Dunnett's multiple comparisons between controls and compounds. Differences were considered statistically significant at p<0.05.” left out

α-synuclein (α-syn) = target: T6, α-synuclein (α-syn) (Homo sapiens, UniProt P37840); experiment: Thioflavin-T (ThT) fluorescence assay of α-syn fibril formation; conditions: for remaining activity at 100 µM: compounds at 100 μM, α-syn 6.25 μM, control 0.25% DMSO, read-out: ThT a-Syn (%), maximum thioflavin T (ThT) intensity in percentage
T6 construct: purchased rPeptide
Protocol: as §1
(§4) Compounds with the highest anti-fibrillary activity were tested at 3.125, 6.25, 12.5, 25, 50, and 100 μM to obtain dose-response curves with prepared α-syn and 2N4R tau at 6.25 μM and 6 μM, respectively. Compounds were tested with α-syn using a previously published procedure. Concerning the tau (isoform 2N4R) kinetics of fibril formation, measurements of ThT fluorescence were performed with a solution of the protein diluted to a final concentration of 6 μM in PBS (pH 7.4) supplemented with 1.5 μM heparin, 20 μM ThT, 2.5 mM DTT, and 100 μM compound. Aliquots of the diluted protein solution (100 μL each) were pipetted into the wells of a 96-well plate, and a Teflon ball was added to each well. The plate was incubated at 37° C. with constant shaking at 1,000 rpm in a Tecan Spark plate reader. ThT fluorescence was measured every 15 minutes with excitation and emission wavelengths of 440 nm and 480 nm, and the data were plotted using GraphPad Prism.

[4] = target: T7, islet amyloid polypeptide (IAPP) (Homo sapiens, UniProt P10997); experiment: ThT fluorescence assay of IAPP fibril formation; conditions: screen on prone-to-aggregate proteins (FIG. 2A, FIG. 4A); IAPP 10 μM
T7 construct: Human islet amyloid polypeptide (IAPP) was procured from AnaSpec; purchased AnaSpec; host or cells: synthetic peptide
T7 sequence (P10997 34-70 limits assumed): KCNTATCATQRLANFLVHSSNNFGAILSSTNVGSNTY
Protocol: as §1, with “All results contained in histograms were presented as mean±SEM. Data were analyzed by the one-way analysis of variance with Dunnett's multiple comparisons between controls and compounds. Differences were considered statistically significant at p<0.05.” left out

Aβ1-42 = target: T8, Aβ1-42 (Homo sapiens, UniProt P05067); experiment: ThT fluorescence assay of Aβ1-42 fibril formation; conditions: screen on prone-to-aggregate proteins (FIG. 2A, FIG. 4A); Aβ 7 μM
T8 construct: α-syn, Aβ1-40, Aβ1-42 were procured from rPeptide; purchased rPeptide
Protocol: as §1

tau isoform 2N4R [5] = target: T3, tau isoform 2N4R; experiment: ThT kinetics of tau isoform 2N4R fibril formation; conditions: tau 6 μM, compound 100 μM
Protocol: as §2, §4

α-syn [6] = target: T4, α-syn; experiment: Photo-induced cross-linking of unmodified proteins (PICUP), α-syn oligomerization; conditions: compound 200 μM
[7] = screen on prone-to-aggregate proteins (FIG. 2A, FIG. 4A)

T3 sequence (P10636 1-441 isoform P10636-8): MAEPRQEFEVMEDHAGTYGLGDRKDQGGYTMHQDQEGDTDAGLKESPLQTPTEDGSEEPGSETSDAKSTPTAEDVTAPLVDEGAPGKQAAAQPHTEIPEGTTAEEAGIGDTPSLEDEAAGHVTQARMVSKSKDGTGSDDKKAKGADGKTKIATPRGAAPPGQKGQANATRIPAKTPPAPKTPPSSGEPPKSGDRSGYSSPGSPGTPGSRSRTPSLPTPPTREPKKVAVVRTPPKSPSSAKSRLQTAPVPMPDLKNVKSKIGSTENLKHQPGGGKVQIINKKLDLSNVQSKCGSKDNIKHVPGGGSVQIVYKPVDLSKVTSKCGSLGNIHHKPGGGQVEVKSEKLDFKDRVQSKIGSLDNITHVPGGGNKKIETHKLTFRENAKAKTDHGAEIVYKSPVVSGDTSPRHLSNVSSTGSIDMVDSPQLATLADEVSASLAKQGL
T5 sequence (P05067 672-711 limits assumed): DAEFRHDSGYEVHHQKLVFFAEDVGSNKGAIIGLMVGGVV
T8 sequence (P05067 672-713 limits assumed): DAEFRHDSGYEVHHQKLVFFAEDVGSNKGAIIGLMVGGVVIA

## Clc1nc(Cl)nc(Nc2ccc(-c3nc4ccccc4s3)cc2)n1 [Compound 5, N-[4-(1,3-benzothiazol-2-yl)phenyl]-4,6-dichloro-1,3,5-triazin-2-amine]
TTR101-125
  thioflavin T fluorescence intensity, TTR101-125: greater than 100%
[1]
  remaining activity at 100 µM: > 100%
[1]; [7]
  thioflavin T fluorescence intensity, TTR81-127: greater than 100%
Tau isoform 2N4R [2]
  tau isoform 2N4R oligomer formation (PICUP): high molecular weight bands representing the oligomeric species
α-syn [3]
  α-syn oligomer formation (PICUP): high molecular weight bands representing the oligomeric species
Aβ1-40
  thioflavin T fluorescence intensity, Aβ1-40: greater than 100%
α-synuclein (α-syn)
  remaining activity at 100 µM: > 100%
α-synuclein (α-syn); [7]
  thioflavin T fluorescence intensity, α-syn: greater than 100%
[4]
  thioflavin T fluorescence intensity, IAPP: greater than 100%
Aβ1-42
  thioflavin T fluorescence intensity, Aβ1-42: greater than 100%

## CCNC(=O)N(C(=O)NCC)c1nsc2ccc([N+](=O)[O-])cc12 [Compound 13, N-ethyl-1-[(ethylcarbamoyl)(5-nitro-1,2-benzothiazol-3-yl)amino]formamide]
Tau isoform 2N4R [5]
  lag time of tau isoform 2N4R fibril formation: delayed the lag time
  production of tau isoform 2N4R fibrils (ThT kinetic aggregation curves): reduced the production of tau isoform 2N4R fibrils
[1]
  remaining activity at 100 µM: 73.4 ± 1.9%
α-syn [6]
  α-syn oligomer formation (PICUP) at high concentration: reduced substantially the oligomer formation
α-synuclein (α-syn)
  remaining activity at 100 µM: 16.4 ± 7.8%

Reference: patent publication US20260224538A1 (Purdue Research Foundation, priority 2023, published 2026)
